23 compounds from patent US9783527B2, “Indazole ureas and method of use” (AbbVie Inc., priority 2014, dated 2017) can be followed below.

One experiment deals with human Nav1.7 (Homo sapiens (Human), UniProt Q15858). The experiment in a line: FRET-based membrane potential assay, recombinant human sodium channel Nav1.7. It is filed as cell-based. The note with it: HEK293 cells stably expressing recombinant human Nav1.7; depolarization with veratridine (EC80) + scorpion venom. Summed up: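 IC50 derived by four-parameter Hill fit of percent inhibition of depolarization, measured as peak F440-480/F565-625 ratio over baseline. Stable human Nav1.7 HEK293 cells, dye-loaded with CC2-DMPE and DiSBAC2(3)/VABSC-1 at room temperature, received compound 3 min ahead of veratridine (EC80) plus scorpion venom.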

The next experiment has as its target human Nav1.8 (Homo sapiens (Human), UniProt Q9Y5Y9). The experiment in a line: FRET-based membrane potential assay, recombinant human sodium channel Nav1.8. It is filed as cell-based. Conditions: HEK293 cells stably expressing recombinant human Nav1.8; depolarization with veratridine (EC80) + scorpion venom. The procedure: FRET-Based Membrane Potential Assays.
Recombinant, Human Sodium Channel, Nav1.8.
Two days prior to the experiment, frozen HEK293 cells stably expressing recombinant human Nav1.8 (Essen, Ann Arbor, Mich.) were quickly thawed and plated at 22,500 cells/well in growth medium [MEM (Invitrogen #11095) with 10% FBS (Invitrogen #10082), 1 mM sodium pyruvate (Invitrogen, #C11360), 10 units/mL penicillin/10 U/mL streptomycin/29.2 μg/mL glutamine ((PSG 1%, Invitrogen #10378), 400 μg/mL zeocin (Invitrogen #R250) in black-walled, clear-bottom 384-well poly-D-lysine-coated assay plates (Greiner Bio-One, Frickenhausen, Germany) and incubated in a humidified 5% CO2 incubator at 37° C. On the day of the assay, medium was removed by aspiration, and cells were washed with assay buffer [HBSS (Invitrogen, Carlsbad, Calif.) containing 20 mM HEPES (Invitrogen, Carlsbad, Calif.)]. After washing, 30 μL assay buffer containing the fluorescent voltage-sensor probe CC2-DMPE (Invitrogen, Carlsbad, Calif.) at 20 μM and 0.01% pluronic F-127 (Invitrogen, Carlsbad, Calif.) was added to the cells. Cells were incubated for 40 minutes at room temperature in the dark. Following the incubation, the cells were washed and 30 μL assay buffer containing 2.5 μM DiSBAC2(3) substrate (Invitrogen, Carlsbad, Calif.) and 0.5 mM VABSC-1 (Invitrogen, Carlsbad, Calif.) was added to the cells. The cells were incubated for 60 minutes at room temperature in the dark. Fluorescence readings were made using a FLIPR®^TETRA (Molecular Devices, Sunnyvale Calif.) equipped with voltage-sensor probe optics. The depolarizing agent, veratridine (Sigma-Aldrich, St. Louis, Mo.), was made up at 3× concentrations in assay buffer containing 1 mg/mL scorpion venom (SVqq, from Leiurus quinquestriatus; Sigma-Aldrich, St. Louis, Mo.). The assay agonist/opener concentration was determined each day using a 6-point veratridine concentration curve in duplicate, tested with three concentrations of tetracaine (0.1, 0.06, 0.01 μM all in 0.03% dimethyl sulfoxide) and 0.03% dimethyl sulfoxide control in assay buffer. […] Test compounds in the daughter plate were diluted to (˜3×) solutions in assay buffer immediately before assaying. Using the FLIPR®^TETRA, 20 μL of the (3×) compound solutions were first added to the cells, then 20 μL of depolarizing solution (3×EC80 veratridine+SVqq) were added 3 minutes later to activate the channel. Changes in fluorescence were measured at wavelengths of 440-480 nm and 565-625 nm over the course of the experimental run. Membrane depolarization was expressed as a ratio of the maximum F440-480 nm/F565-625 nm reading above average baseline F440-480 nm/F565-625 nm reading. IC50 values were calculated from curve fits of the ratio data using a four-parameter logistic Hill equation (Accelrys Assay Explorer 3.3 Client, Accelrys, San Diego, Calif.) with percent inhibition plotted against compound concentration.

Chain of human Nav1.8 (Q9Y5Y9 whole entry): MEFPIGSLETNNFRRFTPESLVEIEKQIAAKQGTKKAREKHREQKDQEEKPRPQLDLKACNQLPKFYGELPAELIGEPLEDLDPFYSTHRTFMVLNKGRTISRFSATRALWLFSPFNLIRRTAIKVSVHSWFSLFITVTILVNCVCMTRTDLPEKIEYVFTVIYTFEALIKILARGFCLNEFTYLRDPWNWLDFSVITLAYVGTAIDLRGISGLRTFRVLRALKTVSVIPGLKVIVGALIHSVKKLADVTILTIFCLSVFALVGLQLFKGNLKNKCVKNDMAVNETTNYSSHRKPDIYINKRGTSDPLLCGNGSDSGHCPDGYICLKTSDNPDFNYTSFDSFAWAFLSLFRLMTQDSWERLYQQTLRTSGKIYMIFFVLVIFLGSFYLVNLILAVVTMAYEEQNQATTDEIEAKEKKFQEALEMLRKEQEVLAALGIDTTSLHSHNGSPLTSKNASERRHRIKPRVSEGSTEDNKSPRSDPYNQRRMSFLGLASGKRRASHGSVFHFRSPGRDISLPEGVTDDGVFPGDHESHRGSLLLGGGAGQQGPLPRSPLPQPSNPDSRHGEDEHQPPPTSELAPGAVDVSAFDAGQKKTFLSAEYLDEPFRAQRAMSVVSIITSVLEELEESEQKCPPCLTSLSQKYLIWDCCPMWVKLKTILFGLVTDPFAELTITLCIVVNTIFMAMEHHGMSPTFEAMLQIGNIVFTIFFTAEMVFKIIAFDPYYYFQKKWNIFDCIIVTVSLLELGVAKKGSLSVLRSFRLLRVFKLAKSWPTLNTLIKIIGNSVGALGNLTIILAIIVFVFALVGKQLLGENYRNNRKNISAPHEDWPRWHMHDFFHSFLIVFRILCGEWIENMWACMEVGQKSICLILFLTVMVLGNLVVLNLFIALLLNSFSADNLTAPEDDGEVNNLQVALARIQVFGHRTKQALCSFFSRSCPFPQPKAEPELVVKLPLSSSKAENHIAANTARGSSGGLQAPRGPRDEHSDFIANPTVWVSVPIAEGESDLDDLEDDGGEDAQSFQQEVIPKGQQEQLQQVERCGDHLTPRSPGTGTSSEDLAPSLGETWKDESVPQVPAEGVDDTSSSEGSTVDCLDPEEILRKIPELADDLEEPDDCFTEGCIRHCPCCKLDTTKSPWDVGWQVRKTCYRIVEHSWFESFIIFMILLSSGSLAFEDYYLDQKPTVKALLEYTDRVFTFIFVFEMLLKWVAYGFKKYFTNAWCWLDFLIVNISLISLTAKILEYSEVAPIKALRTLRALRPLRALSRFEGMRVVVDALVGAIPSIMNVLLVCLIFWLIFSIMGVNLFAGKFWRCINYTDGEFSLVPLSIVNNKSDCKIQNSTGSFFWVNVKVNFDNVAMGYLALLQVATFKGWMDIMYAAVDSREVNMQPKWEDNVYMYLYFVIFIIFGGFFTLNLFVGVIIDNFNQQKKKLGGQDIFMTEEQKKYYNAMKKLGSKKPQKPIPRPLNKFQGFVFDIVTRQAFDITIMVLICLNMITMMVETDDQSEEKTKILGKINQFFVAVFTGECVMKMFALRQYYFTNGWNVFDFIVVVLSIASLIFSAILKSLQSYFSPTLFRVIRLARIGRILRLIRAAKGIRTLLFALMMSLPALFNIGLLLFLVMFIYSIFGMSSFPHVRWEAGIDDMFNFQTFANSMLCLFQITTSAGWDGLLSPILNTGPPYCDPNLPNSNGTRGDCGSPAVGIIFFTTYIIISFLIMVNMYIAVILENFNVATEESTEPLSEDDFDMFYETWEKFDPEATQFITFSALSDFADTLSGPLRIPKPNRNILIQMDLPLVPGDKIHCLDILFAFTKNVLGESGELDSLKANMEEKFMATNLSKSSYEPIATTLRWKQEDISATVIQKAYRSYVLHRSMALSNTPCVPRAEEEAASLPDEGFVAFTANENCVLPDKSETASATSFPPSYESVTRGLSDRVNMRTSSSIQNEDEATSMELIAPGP
Chain of human Nav1.7 (Q15858 whole entry): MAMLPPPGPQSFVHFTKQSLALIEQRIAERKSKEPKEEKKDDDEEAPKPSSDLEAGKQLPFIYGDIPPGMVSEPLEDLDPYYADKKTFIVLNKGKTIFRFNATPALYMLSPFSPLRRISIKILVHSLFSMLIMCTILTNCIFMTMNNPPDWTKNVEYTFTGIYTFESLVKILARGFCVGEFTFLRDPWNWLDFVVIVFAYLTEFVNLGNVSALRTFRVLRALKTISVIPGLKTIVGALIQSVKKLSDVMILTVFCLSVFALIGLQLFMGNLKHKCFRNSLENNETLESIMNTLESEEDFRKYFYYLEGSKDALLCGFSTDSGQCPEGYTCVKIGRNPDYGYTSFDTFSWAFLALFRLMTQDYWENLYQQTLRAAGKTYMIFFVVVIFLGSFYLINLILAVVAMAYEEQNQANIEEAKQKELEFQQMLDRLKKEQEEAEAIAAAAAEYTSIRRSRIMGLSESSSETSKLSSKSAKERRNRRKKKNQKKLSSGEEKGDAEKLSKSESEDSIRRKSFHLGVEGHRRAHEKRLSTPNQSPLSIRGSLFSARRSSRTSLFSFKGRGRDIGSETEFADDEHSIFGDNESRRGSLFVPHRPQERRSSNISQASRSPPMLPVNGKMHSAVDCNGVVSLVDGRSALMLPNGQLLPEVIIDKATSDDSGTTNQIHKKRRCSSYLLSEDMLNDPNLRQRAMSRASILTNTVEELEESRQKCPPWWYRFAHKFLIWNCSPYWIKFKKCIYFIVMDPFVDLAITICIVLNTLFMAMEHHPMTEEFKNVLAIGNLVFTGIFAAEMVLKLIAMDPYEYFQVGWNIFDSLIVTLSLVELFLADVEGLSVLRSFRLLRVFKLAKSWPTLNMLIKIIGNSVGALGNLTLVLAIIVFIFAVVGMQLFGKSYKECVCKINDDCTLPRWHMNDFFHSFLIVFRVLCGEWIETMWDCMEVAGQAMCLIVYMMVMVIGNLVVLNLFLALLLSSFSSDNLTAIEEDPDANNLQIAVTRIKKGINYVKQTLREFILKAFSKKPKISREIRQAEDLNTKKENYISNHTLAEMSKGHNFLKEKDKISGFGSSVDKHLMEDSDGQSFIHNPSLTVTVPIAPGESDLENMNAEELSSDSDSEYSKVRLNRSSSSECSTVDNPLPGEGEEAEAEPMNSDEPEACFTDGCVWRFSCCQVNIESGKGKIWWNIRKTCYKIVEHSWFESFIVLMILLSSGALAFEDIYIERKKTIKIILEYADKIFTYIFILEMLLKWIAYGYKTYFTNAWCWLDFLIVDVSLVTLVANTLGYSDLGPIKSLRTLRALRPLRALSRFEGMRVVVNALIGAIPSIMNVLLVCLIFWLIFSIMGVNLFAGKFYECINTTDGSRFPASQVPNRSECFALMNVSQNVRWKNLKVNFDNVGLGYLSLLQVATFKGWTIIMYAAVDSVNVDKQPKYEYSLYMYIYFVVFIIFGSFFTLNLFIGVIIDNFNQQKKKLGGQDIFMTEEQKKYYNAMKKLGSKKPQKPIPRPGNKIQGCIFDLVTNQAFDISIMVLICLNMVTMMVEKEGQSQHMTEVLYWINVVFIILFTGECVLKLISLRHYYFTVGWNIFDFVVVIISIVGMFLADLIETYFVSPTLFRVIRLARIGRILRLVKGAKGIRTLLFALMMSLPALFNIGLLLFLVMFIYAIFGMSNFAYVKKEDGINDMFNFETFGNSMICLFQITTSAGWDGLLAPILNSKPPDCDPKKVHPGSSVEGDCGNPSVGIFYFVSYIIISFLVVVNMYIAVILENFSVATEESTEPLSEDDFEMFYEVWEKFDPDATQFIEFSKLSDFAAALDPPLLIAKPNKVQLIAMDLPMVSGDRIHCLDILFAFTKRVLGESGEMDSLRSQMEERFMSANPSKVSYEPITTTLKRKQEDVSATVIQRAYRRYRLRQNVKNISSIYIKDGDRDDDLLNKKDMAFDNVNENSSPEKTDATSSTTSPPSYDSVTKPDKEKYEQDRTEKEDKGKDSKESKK

Take `O=C(CN1CCN(c2cccc3c2cnn3-c2ccccc2F)C1=O)N1CC2(COC2)C1` [Example 100, 1-[1-(2-fluorophenyl)-1H-indazol-4-yl]-3-[2-(2-oxa-6-azaspiro[3.3]hept-6-yl)-2-oxoethyl]imidazolidin-2-one]: the IC50 at human Nav1.7 stood at 5010 nM; on human Nav1.8, 20000 nM.

`CCCS(=O)(=O)N1CC(N2CCN(c3cccc4c3cnn4-c3ccccc3F)C2=O)C1` [Example 274, 1-[1-(2-fluorophenyl)-1H-indazol-4-yl]-3-[1-(propylsulfonyl)azetidin-3-yl]imidazolidin-2-one]: the IC50 at human Nav1.7 was 2740 nM; on human Nav1.8, 1400 nM.

In the case of `O=C1N(c2cccc3c2cnn3-c2ccccc2F)CCN1[C@H]1CCCC[C@@H]1OCc1ccccc1` [Example 275, 1-[(1S,2S)-2-(benzyloxy)cyclohexyl]-3-[1-(2-fluorophenyl)-1H-indazol-4-yl]imidazolidin-2-one], the IC50 on human Nav1.7 turned out to be 1410 nM; on human Nav1.8, 3700 nM.

As for `O=C1N(c2cccc3c2cnn3-c2ccccc2F)CCN1[C@H]1CCCC[C@@H]1O` [Example 276, 1-[1-(2-fluorophenyl)-1H-indazol-4-yl]-3-[(1S,2S)-2-hydroxycyclohexyl]imidazolidin-2-one], the IC50 on human Nav1.7 was found to be 15100 nM; on human Nav1.8 it was 6440 nM.

In the case of `CO[C@H]1CCCC[C@@H]1N1CCN(c2cccc3c2cnn3-c2ccccc2F)C1=O` [Example 279, 1-[1-(2-fluorophenyl)-1H-indazol-4-yl]-3-[(1S,2S)-2-methoxycyclohexyl]imidazolidin-2-one], the values for the half-maximal inhibitory concentration (IC50) at human Nav1.7 and on human Nav1.8 were 1860 nM and 5640 nM, respectively.

As to `CC(C)CO[C@H]1CCCC[C@@H]1N1CCN(c2cccc3c2cnn3-c2ccccc2F)C1=O` [Example 280, 1-[1-(2-fluorophenyl)-1H-indazol-4-yl]-3-[(1S,2S)-2-isobutoxycyclohexyl]imidazolidin-2-one], the values for the 50% inhibitory concentration (IC50) at human Nav1.7 and on human Nav1.8 were 518 nM and 10800 nM, respectively.

Turning to `O=C1CCCC[C@@H]1N1CCN(c2cccc3c2cnn3-c2ccccc2F)C1=O` [Example 281, 1-[1-(2-fluorophenyl)-1H-indazol-4-yl]-3-[(1S)-2-oxocyclohexyl]imidazolidin-2-one], the IC50 on human Nav1.7 was found to be 11600 nM; on human Nav1.8 it was 12400 nM.

Take `O=C1N(c2cccc3c2cnn3-c2ccccc2F)CCN1C1CN(S(=O)(=O)CC2CC2(Cl)Cl)C1` (stereo not shown) [Example 282, 1-(1-{[(2,2-dichlorocyclopropyl)methyl]sulfonyl}azetidin-3-yl)-3-[1-(2-fluorophenyl)-1H-indazol-4-yl]imidazolidin-2-one]: the IC50 worked out at 2490 nM at human Nav1.7 and 1410 nM at human Nav1.8.

Regarding `O=C1N(c2cccc3c2cnn3-c2ccccc2F)CCN1C1CN(S(=O)(=O)CC2CC2)C1` [Example 283, 1-{1-[(cyclopropylmethyl)sulfonyl]azetidin-3-yl}-3-[1-(2-fluorophenyl)-1H-indazol-4-yl]imidazolidin-2-one], the IC50 on human Nav1.7 was determined as 2550 nM; at human Nav1.8, 2210 nM.

Regarding `O=C1N(c2cccc3c2cnn3-c2ccccc2F)CCN1C1CN(S(=O)(=O)CC(F)(F)F)C1` [Example 284, 1-[1-(2-fluorophenyl)-1H-indazol-4-yl]-3-{1-[(2,2,2-trifluoroethyl)sulfonyl]azetidin-3-yl}imidazolidin-2-one], the IC50 came out at 2430 nM on human Nav1.7 and 1190 nM at human Nav1.8.

For `CC(C)CS(=O)(=O)N1CC(N2CCN(c3cccc4c3cnn4-c3ccccc3F)C2=O)C1` [Example 285, 1-[1-(2-fluorophenyl)-1H-indazol-4-yl]-3-[1-(isobutylsulfonyl)azetidin-3-yl]imidazolidin-2-one], the IC50 on human Nav1.7 is 2520 nM; on human Nav1.8, 1470 nM.

For the compound `CC(C)(C)OC(=O)CN1CCN(c2cccc3c2cnn3-c2ccccc2F)C1=O` [Example 286, tert-butyl {3-[1-(2-fluorophenyl)-1H-indazol-4-yl]-2-oxoimidazolidin-1-yl}acetate], the IC50 at human Nav1.7 was found to be 3170 nM; at human Nav1.8, 3000 nM.

On to `CC(C)(C)OC(=O)CCN1CCN(c2cccc3c2cnn3-c2ccccc2F)C1=O` [Example 289, tert-butyl 3-{3-[1-(2-fluorophenyl)-1H-indazol-4-yl]-2-oxoimidazolidin-1-yl}propanoate], for which the IC50 at human Nav1.7 was 2710 nM; on human Nav1.8, 2050 nM.

Turning to `O=C(CN1CCN(c2cccc3c2cnn3-c2ccccc2F)C1=O)N1CCC[C@H](O)C1` [Example 290, 1-[1-(2-fluorophenyl)-1H-indazol-4-yl]-3-{2-[(3S)-3-hydroxypiperidin-1-yl]-2-oxoethyl}imidazolidin-2-one], the IC50 came to 4150 nM at human Nav1.7 and 13500 nM at human Nav1.8.

In the case of `O=C(CN1CCN(c2cccc3c2cnn3-c2ccccc2F)C1=O)N1CC(O)C1` [Example 291, 1-[1-(2-fluorophenyl)-1H-indazol-4-yl]-3-[2-(3-hydroxyazetidin-1-yl)-2-oxoethyl]imidazolidin-2-one], the IC50 at human Nav1.7 came out at 5900 nM; on human Nav1.8 it was 13100 nM.

In the case of `O=C(CCN1CCN(c2cccc3c2cnn3-c2ccccc2F)C1=O)N1CC[C@H](F)C1` [Example 292, 1-[1-(2-fluorophenyl)-1H-indazol-4-yl]-3-{3-[(3S)-3-fluoropyrrolidin-1-yl]-3-oxopropyl}imidazolidin-2-one], the IC50 on human Nav1.7 was determined as 2960 nM; on human Nav1.8, 4440 nM.

As to `O=C(CN1CCN(c2cccc3c2cnn3-c2ccccc2F)C1=O)N1CCOCC1` [Example 293, 1-[1-(2-fluorophenyl)-1H-indazol-4-yl]-3-[2-(morpholin-4-yl)-2-oxoethyl]imidazolidin-2-one], the values for the IC50 at human Nav1.7 and on human Nav1.8 were 3670 nM and 17600 nM, respectively.

Consider `O=C(CN1CCN(c2cccc3c2cnn3C2CCCCC2)C1=O)N1CC[C@H](F)C1` [Example 294, 1-(1-cyclohexyl-1H-indazol-4-yl)-3-{2-[(3S)-3-fluoropyrrolidin-1-yl]-2-oxoethyl}imidazolidin-2-one], for which the IC50 turned out to be 7170 nM at human Nav1.7 and 18300 nM on human Nav1.8.

In the case of `O=C(CN1CCN(c2cccc3c2cnn3-c2ccccc2F)C1=O)N1CCCCC1` [Example 295, 1-[1-(2-fluorophenyl)-1H-indazol-4-yl]-3-[2-oxo-2-(piperidin-1-yl)ethyl]imidazolidin-2-one], the IC50 stood at 2510 nM at human Nav1.7 and 1790 nM on human Nav1.8.

On to `O=C(CN1CCN(c2cccc3c2cnn3-c2ccccc2F)C1=O)N1CCCC(F)(F)C1` [Example 296, 1-[2-(3,3-difluoropiperidin-1-yl)-2-oxoethyl]-3-[1-(2-fluorophenyl)-1H-indazol-4-yl]imidazolidin-2-one], for which the IC50 was 3180 nM on human Nav1.7 and 1310 nM on human Nav1.8.

With `O=C(CN1CCN(c2cccc3c2cnn3-c2ccccc2F)C1=O)N1CCC(F)(F)CC1` [Example 297, 1-[2-(4,4-difluoropiperidin-1-yl)-2-oxoethyl]-3-[1-(2-fluorophenyl)-1H-indazol-4-yl]imidazolidin-2-one], the IC50 on human Nav1.7 was found to be 3020 nM; on human Nav1.8, 881 nM.

On to `O=C(CN1CCN(c2cccc3c2cnn3-c2ccccc2F)C1=O)N1CC(F)C1` [Example 298, 1-[2-(3-fluoroazetidin-1-yl)-2-oxoethyl]-3-[1-(2-fluorophenyl)-1H-indazol-4-yl]imidazolidin-2-one], for which the IC50 was determined as 3370 nM at human Nav1.7 and 1520 nM on human Nav1.8.

On to `O=C(CN1CCN(c2cccc3c2cnn3-c2ccccc2F)C1=O)N1CCC(C(F)(F)F)CC1` [Example 299, 1-[1-(2-fluorophenyl)-1H-indazol-4-yl]-3-{2-oxo-2-[4-(trifluoromethyl)piperidin-1-yl]ethyl}imidazolidin-2-one], for which the figures for the IC50 on human Nav1.7 and on human Nav1.8 were 950 nM and 398 nM, respectively.
